Literature values in patent publication US6660286B1, “Emulsion vehicle for poorly soluble drugs” (Sonus Pharmaceuticals, Inc., priority 1997, dated 2003).
Read-outs that look alike come from different tables or passages of the source.

In the case of CC(=O)O[C@H]1C(=O)[C@@]2(C)[C@H]([C@H](OC(=O)c3ccccc3)[C@]3(O)C[C@H](OC(=O)[C@H](O)[C@@H](NC(=O)c4ccccc4)c4ccccc4)C(C)=C1C3(C)C)[C@]1(OC(C)=O)CO[C@@H]1C[C@@H]2O [paclitaxel], the solubility of paclitaxel (30% PVP in water) is listed as no more than 0.3 mg/mL, the solubility of paclitaxel (35% PEG 400 in water) is listed as 0.03 mg/mL and the solubility of paclitaxel (admixtures of PEG 400 and water containing 50-100% PEG 400) is listed as 0.2 to 175 mg/mL.
